Results as given in patent US20110312974A1, “HETEROARYL ANTAGONISTS OF PROSTAGLANDIN D2 RECEPTORS” (AMIRA PHARMACEUTICALS, INC., priority 2008, published 2011).

Each compound was assayed against T1, human DP2 receptor (Homo sapiens, UniProt Q9Y5Y4) (assay: DP2/CRTH2 radioligand binding assay using [3H]PGD2). Conditions: hDP2 (CRTH2) binding assay; membranes of HEK293 cells expressing recombinant human DP2, 1 nM [3H]PGD2.
T1 construct: expressed in transfected cells; membrane preparation
T1 sequence (Q9Y5Y4 1-395): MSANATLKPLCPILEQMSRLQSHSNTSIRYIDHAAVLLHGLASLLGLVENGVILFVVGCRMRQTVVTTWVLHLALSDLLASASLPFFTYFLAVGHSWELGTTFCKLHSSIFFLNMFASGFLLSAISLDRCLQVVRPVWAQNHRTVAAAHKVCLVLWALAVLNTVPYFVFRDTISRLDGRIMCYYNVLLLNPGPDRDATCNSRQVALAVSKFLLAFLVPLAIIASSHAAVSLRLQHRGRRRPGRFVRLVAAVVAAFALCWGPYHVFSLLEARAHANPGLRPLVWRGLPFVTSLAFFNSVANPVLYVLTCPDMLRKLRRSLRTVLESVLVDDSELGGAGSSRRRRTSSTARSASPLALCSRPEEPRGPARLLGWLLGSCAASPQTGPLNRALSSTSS
Protocol: The ability of a compound to bind to the human DP2 receptor is assessed via a radioligand binding assay using [^3H]PGD2. HEK293 cells stably expressing recombinant human DP2 are resuspended in 10 mM Hepes, 7.4 containing 1 mM DTT, lysed and centrifuged at 75,000×g to pellet the membranes. The membranes are resuspended in 10 mM Hepes, 7.4 containing 1 mM DTT and 10% glycerol to approximately 5 mg protein/ml. Membranes (2-10 μg protein/well) are incubated in 96-well plates with 1 nM [^3H]PGD2 and test compound in Assay Buffer (50 mM Hepes, 10 mM MnCl2, 1 mM EDTA, plus or minus 0.2% human serum albumin, pH 7.4) for 60 minutes at room temperature. The reactions are terminated by rapid filtration through Whatman GF/C glass fibre filter plates. The filter plates were pre-soaked in 0.33% polythylenimine for 30 minutes at room temperature then washed in Wash Buffer (50 mM Hepes, 0.5 M NaCl pH 7.4) prior to harvesting. After harvesting, the filter plates are washed 3 times with 1 ml cold Wash Buffer then dried. Scintillant is then added to the plates and the radioactivity retained on the filters is determined on a Packard TopCount (Perkin Elmer). Specific binding is determined as total radioactive binding minus non-specific binding in the presence of 10 μM PGD2. IC50s were determined using GraphPad prism analysis of drug titration curves.

IC50 [nM] | SMILES
300 to 1000 | O=C(O)Cc1cncc(-c2ccc(C(=O)N3CCCC3)cc2CN(Cc2ccccc2)C(=O)C2CC2)c1 [Compound 1-8, {5-[2-[(N-Benzyl-N-cyclopropanecarbonyl-amino)-methyl]-4-(pyrrolidine-1-carbonyl)-phenyl]-pyridin-3-yl}-acetic acid]
> 1000 | CC(=O)NCc1ccc(-c2cncc(CC(=O)O)c2)c(CN(Cc2ccccc2)C(=O)C2CC2)c1 [Compound 1-9, (5-{4-(Acetylamino-methyl)-2-[(N-benzyl-N-cyclopropanecarbonyl-amino)-methyl]-phenyl}-pyridin-3-yl)-acetic acid]
> 1000 | CS(=O)(=O)NCc1ccc(-c2cncc(CC(=O)O)c2)c(CN(Cc2ccccc2)C(=O)C2CC2)c1 [Compound 1-10, {5-[2-[(N-Benzyl-N-cyclopropanecarbonyl-amino)-methyl]-4-(methanesulfonylamino-methyl)-phenyl]-pyridin-3-yl}-acetic acid]
< 300 | CCN(Cc1cc(F)ccc1-c1cncc(C(C)C(=O)O)c1)C(=O)OCc1ccccc1 (stereo not shown) [Compound 1-11, 2-(5-{2-[(N-Benzyloxycarbonyl-N-ethyl-amino)-methyl]-4fluoro-phenyl}-pyridin-3-yl)-propionic acid]
300 to 1000 | CCN(Cc1cc(F)ccc1-c1cncc(C(C)C(=O)O)c1)C(=O)NCc1ccccc1 (stereo not shown) [Compound 1-12, 2-{5-[2-(3-Benzyl-1-ethyl-ureidomethyl)-4fluoro-phenyl]-pyridin-3-yl}-propionic acid]
> 1000 | CCN(Cc1cc(F)ccc1-c1cncc(C(C)C(=O)O)c1)C(=O)C1CC1 (stereo not shown) [Compound 1-13, 2-(5-[2-[(N-Cyclopropanecarbonyl-N-ethyl-amino)-methyl]-4-fluoro-phenyl]-pyridin-3-yl)-propionic acid]
< 300 | O=C(O)Cc1cncc(-c2ccc(C(F)(F)F)cc2CN(C(=O)C2CC2)C2Cc3ccccc3C2)c1 [Compound 1-24, (5-{2-[(N-Cyclopropanecarbonyl-N-indan-2-yl-amino)-methyl]-4-trifluoromethyl-phenyl}-pyridin-3-yl)-acetic acid]
< 300 | O=C(O)Cc1cncc(-c2ccc(C(F)(F)F)cc2CN(CCc2ccccc2)C(=O)C2CC2)c1 [Compound 1-26, (5-{2-[(N-Cyclopropanecarbonyl-N-phenethyl-amino)-methyl]-4-trifluoromethyl-phenyl}-pyridin-3-yl)-acetic acid]
< 300 | CC(=O)N(CCc1ccccc1)Cc1cc(C(F)(F)F)ccc1-c1cncc(CC(=O)O)c1 [Compound 1-27, (5-{2-[(N-Acetyl-N-phenethyl-amino)-methyl]-4-trifluoromethyl-phenyl}-pyridin-3-yl)-acetic acid]
> 1000 | CCN(Cc1cc(C(F)(F)F)ccc1-c1cc(CC(=O)O)ccn1)C(=O)NCc1ccccc1 [Compound 1-34, {2-[2-(3-Benzyl-1-ethyl-ureidomethyl)-4-trifluoromethyl-phenyl]-pyridin-4-yl}-acetic acid]
> 1000 | CCN(Cc1cc(C(F)(F)F)ccc1-c1cc(CC(=O)O)ccn1)C(=O)C1CC1 [Compound 1-35, (2-{2-[(N-Cyclopropanecarbonyl-N-ethyl-amino)-methyl]-4-trifluoromethyl-phenyl}-pyridin-4-yl)-acetic acid]
> 1000 | CCN(Cc1cc(C(F)(F)F)ccc1-c1cc(CC(=O)O)ccn1)C(=O)C1CCC1 [Compound 1-36, (2-{2-[(N-Cyclobutanecarbonyl-N-ethyl-amino)-methyl]-4-trifluoromethyl-phenyl}-pyridin-4-yl)-acetic acid]
> 1000 | CCN(Cc1cc(C(F)(F)F)ccc1-c1cc(CC(=O)O)ccn1)C(=O)c1ccccc1 [Compound 1-37, (2-{2-[(N-Benzoyl-N-ethyl-amino)-methyl]-4-trifluoromethyl-phenyl}-pyridin-4-yl)-acetic acid]
> 1000 | CCN(Cc1cc(C(F)(F)F)ccc1-c1cccc(CC(=O)O)n1)C(=O)NCc1ccccc1 [Compound 1-39, {6-[2-(3-Benzyl-1-ethyl-ureidomethyl)-4-trifluoromethyl-phenyl]-pyridin-2-yl}-acetic acid]
> 1000 | CCN(Cc1cc(C(F)(F)F)ccc1-c1cccc(CC(=O)O)n1)C(=O)C1CC1 [Compound 1-40, (6-{2-[(N-Cyclopropanecarbonyl-N-ethyl-amino)-methyl]-4-trifluoromethyl-phenyl}-pyridin-2-yl)-acetic acid]
< 300 | CCN(Cc1cc(C(F)(F)F)ccc1-c1cc(C(F)(F)F)cc(CC(=O)O)n1)C(=O)C1CCC1 [Compound 1-41, (6-{2-[(N-Cyclobutanecarbonyl-N-ethyl-amino)-methyl]-4-trifluoromethyl-phenyl}-4-trifluoromethyl-pyridin-2-yl)-acetic acid]
< 300 | CCN(Cc1cc(C(F)(F)F)ccc1-c1cc(C(F)(F)F)cc(CC(=O)O)n1)C(=O)NCc1ccccc1 [Compound 1-42, {6-[2-(3-Benzyl-1-ethyl-ureidomethyl)-4-trifluoromethyl-phenyl]-4-trifluoromethyl-pyridin-2-yl}-acetic acid]
< 300 | CCN(Cc1cc(-n2cccn2)ccc1-c1cc(CC(=O)O)cnc1OC)C(=O)C1CC1 [Compound 1-46, (5-{2-[(N-Cyclopropanecarbonyl-N-ethyl-amino)-methyl]-4-pyrazol-1-yl-phenyl}-6-methoxy-pyridin-3-yl)-acetic acid]
< 300 | O=C(O)Cc1cncc(-c2ccc(C(F)(F)F)cc2CN(Cc2ccccn2)C(=O)C2CC2)c1 [Compound 1-52, (5-{2-[(N-Cyclopropanecarbonyl-N-pyridin-2-ylmethyl-amino)-methyl]-4-trifluoromethyl-phenyl}-pyridin-3-yl)-acetic acid]
< 300 | CC(=O)N(Cc1ccccn1)Cc1cc(C(F)(F)F)ccc1-c1cncc(CC(=O)O)c1 [Compound 1-53, (5-{2-[(N-Acetyl-N-pyridin-2-ylmethyl-amino)-methyl]-4-trifluoromethyl-phenyl}-pyridin-3-yl)-acetic acid]
< 300 | Cc1cnc(CN(Cc2cc(C(F)(F)F)ccc2-c2cncc(CC(=O)O)c2)C(=O)C2CC2)cn1 [Compound 1-58, [5-(2-{[N-Cyclopropanecarbonyl-N-(5-methyl-pyrazin-2-ylmethyl)-amino]-methyl}-4-trifluoromethyl-phenyl)-pyridin-3-yl]-acetic acid]
< 300 | O=C(O)Cc1cncc(-c2ccc(C(F)(F)F)cc2CN(Cc2ccc(C(F)(F)F)nc2)C(=O)C2CC2)c1 [Compound 1-59, [5-(2-{[N-Cyclopropanecarbonyl-N-(6-trifluoromethyl-pyridin-3-ylmethyl)-amino]-methyl}-4-trifluoromethyl-phenyl)-pyridin-3-yl]-acetic acid]
300 to 1000 | COCC(=O)N(Cc1cnc(C)cn1)Cc1cc(C(F)(F)F)ccc1-c1cncc(CC(=O)O)c1 [Compound 1-60, [5-(2-{[N-(2-Methoxy-acetyl)-N-(5-methyl-pyrazin-2-ylmethyl)-amino]-methyl}-4-trifluoromethyl-phenyl)-pyridin-3-yl]-acetic acid]
< 300 | CC(=O)N(Cc1cnc(C)cn1)Cc1cc(C(F)(F)F)ccc1-c1cncc(CC(=O)O)c1 [Compound 1-61, [5-(2-{[N-Acetyl-N-(5-methyl-pyrazin-2-ylmethyl)-amino]-methyl}-4-trifluoromethyl-phenyl)-pyridin-3-yl]-acetic acid]
< 300 | CC(=O)N(Cc1ccc(C(F)(F)F)nc1)Cc1cc(C(F)(F)F)ccc1-c1cncc(CC(=O)O)c1 [Compound 1-62, [5-(2-{[N-Acetyl-N-(6-trifluoromethyl-pyridin-3-ylmethyl)-amino]-methyl}-4-trifluoromethyl-phenyl)-pyridin-3-yl]-acetic acid]
> 1000 | O=C(O)Cc1cncc(-c2ccc(C(F)(F)F)cc2CN(CCc2ccccn2)C(=O)C2CC2)c1 [Compound 1-64, [5-(2-{[N-Cyclopropanecarbonyl-N-(2-pyridin-2-yl-ethyl)-amino]-methyl}-4-trifluoromethyl-phenyl)-pyridin-3-yl]-acetic acid]
300 to 1000 | O=C(O)Cc1cncc(-c2ccc(C(F)(F)F)cc2CN(CCc2cccnc2)C(=O)C2CC2)c1 [Compound 1-65, [5-(2-{[N-Cyclopropanecarbonyl-N-(2-pyridin-3-yl-ethyl)-amino]-methyl}-4-trifluoromethyl-phenyl)-pyridin-3-yl]-acetic acid]

SMILES | IC50 [nM]
CCN(Cc1cc(C(F)(F)F)ccc1-c1cccc(CC(=O)O)n1)C(=O)OC(C)(C)C [Compound 1-38, (6-{2-[(N-tert-Butoxycarbonyl-N-ethyl-amino)-methyl]-4-trifluoromethyl-phenyl}-pyridin-2-yl)-acetic acid] | > 1000
